Data published in US12414960B2, “Analogues of oleuropein and oleacein and uses thereof” (Attica Sciences Ltd., priority 2020, dated 2025).

Assays:
[1] = Superoxide anion radical scavenging assay (NBT reduction); format: biochemical; conditions: NS = not statistically significant
Source text: These radicals may also play an important role in the peroxidation of unsaturated fatty acids and possibly other susceptible substances.
Under aerobic conditions, superoxide anion radicals are generated nonenzymatically in a NADH-PMS system by oxidation of […] (NADH) with phenazine methosulphate (PMS) in the presence of dissolved oxygen. (See, Nimse, Satish B. et al., RSC Adv, 2015, 5: 27986, “Free radicals, natural antioxidants, and their reaction mechanisms”). The superoxide anion radical O2.^− reduces the pale yellow colored nitroblue tetrazolium cation (NBT^2+) to a blue colored formazan dye, which is measured spectrophotometrically at 560 nm. The decrease of absorbance at 560 nm with antioxidant indicates the consumption of […] in the reaction mixture (FIG. 4).
The superoxide anion radical scavenging activity of each GS compound was determined using the nitro-blue tetrazolium (NBT) reduction method (Cos, Paul et al., J Nat Prod. 1998; 61(1): 71-76). The results were calculated as the percentage of inhibition according to the following formula: I (%)=100 [1−(S−SB)/(C−CB)] Where S, SB, C, and CB are the absorbance of the sample, the blank sample, the control, and the blank control, respectively.

[2] = test system: MKN-45 gastric cancer cells; assay: XTT cell growth assay, MKN-45; format: cell-based, human; conditions: NS = not statistically significant; for inhibition at 50 µM: Homo sapiens, MKN-45, 24 h, read-out: Effectiveness to suppress MKN-45 cell growth (cell growth inhibition)
Source text: The XTT assay is used to measure cellular metabolic activity as an indicator of cell viability, proliferation and cytotoxicity. This non-radioactive, colorimetric assay system was first described by Scudiero, et al. in 1988 (Paull, Kenneth D. et al., J Heterocycl Chem, 1988, 25: 911-914; Scudiero, Dominic A. et al., Cancer Res, 1988, 48: 4827-4833) and improved in subsequent years by several other investigators (Weislow, Owen S. et al., J Natl Cancer Inst, 1989, 81(8): 577-586; Roehm, N. W. et al., J Immunol Methods, 1991, 142: 257-265).
The XTT assay is based on the reduction of a yellow tetrazolium salt (sodium 3′-[1-(phenylaminocarbonyl)-3,4-tetrazolium]-bis (4-methoxy6-nitro) benzene sulfonic acid hydrate or XTT) to an orange formazan dye by metabolically active cells (FIG. 8). The formazan dye formed is soluble in aqueous solutions and is directly quantified using a scanning multiwell spectrophotometer (ELISA reader). An increase in number of living cells results in an increase in the overall activity of mitochondrial dehydrogenases in the sample. This increase directly correlates to the amount of orange formazan formed, as monitored by the absorbance. Reduced number of living cells leads to reduced metabolism of quaternary salt and therefore reduced absorption.
Cell viability was assessed using the XTT assay kit (Roche, Mannheim, Germany) as described previously (Kouka, Paraskevi et al., Oxid Med Cell Longev. 2019, Article ID 1870965). Briefly, cancer cells per well were cultured in a 96-well plate in Dulbecco's modified Eagle's medium (DMEM). Following a 24 h incubation, 5, 10 and 50 μM of the tested GS compound was diluted in a serum-free DMEM and administered for 24 h. Subsequently, 50 μL of the XTT reagent (50:1) was added to each well. After 4 h of incubation, the absorbance was monitored at 450 nm and also at 630 nm as a reference wavelength in a BioTek ELx800 microplate reader (BioTek Instruments Inc., Winooski, VT, USA). As a negative control, samples containing serum-free DMEM only were used.
MKN-45 is a human gastric adenocarcinoma, established from the poorly differentiated adenocarcinoma of the stomach (medullary type) of a person.
The effects of exemplary compounds on cancer cell lines and one non-tumorigenic cell line (control) were investigated using a high throughput screening assay. More specifically, the effects of the GS compounds on cell growth was evaluated by the XTT assay for cell lines HepG2, HeLa, MCF7 ER+, MDA-MB-231, and MKN-45, and by the Cell Glo luminescence assay for cell lines MIA PaCa-2, HCT-116, MCF-10A, and PANC-1.

[3] = test system: HCT-116 colon cancer tumor; assay: HCT116 xenograft mouse model; format: in vivo, nu/nu mice; conditions: 20 mg/kg i.p. every 5 days, until 20 days post-treatment
Protocol: The effect of GS27 on colon cancer tumor growth in mice was evaluated in a HCT116 xenograft mouse model. HCT-116 is a human colorectal cancer cell line that has a mutation in RAS proto-oncogene.
Xenograft tumors were generated by injecting HCT-116 colon cancer cells (5×10^6) into the right flank of female nu/nu mice (Charles River Laboratories). All mice developed tumors in 10 days with size of approximately 100 mm3. For each experiment, mice were randomly distributed into equal groups (4 mice per group) that were untreated, or treated by intraperitoneal injections every 5 days with 20 mg/kg GS27 or GS19 (oleocanthal). Tumor volume (average, SD) was evaluated until 20 days post-treatment.

[4] = test system: HCT-116 colon cancer cells; assay: Cell Glo luminescence cell growth assay, HCT-116; format: cell-based, human; conditions: NS = not statistically significant; for inhibition at 1 µM: Homo sapiens, HCT-116, 24 h, read-out: Effectiveness to suppress HCT-116 cell growth (cell growth inhibition); for Effectiveness to suppress HCT-116 cell growth (cell growth inhibition): 1 uM, 24 h

| SMILES | Superoxide Anion Radical Scavenging Assay IC50 [1] | inhibition at 50 µM [2] | tumor size inhibition, HCT-116 colon cancer tumor growth [3] | inhibition at 1 µM [4] | Effectiveness to suppress HCT-116 cell growth (cell growth inhibition) [4] | Effectiveness to suppress MKN-45 cell growth (cell growth inhibition) ([2]; 50 uM, 24 h) |
| --- | --- | --- | --- | --- | --- | --- |
| C/C=C1/[C@H](OC2OC(CO)C(O)C(O)C2O)OC=C(C(=O)O)[C@H]1CC(=O)OCCc1ccc(O)c(O)c1 (stereo in doubt) [GS6, (2S,4S,E)-4-(2-(3,4-dihydroxyphenethoxy)-2-oxoethyl)-3-ethylidene-2{[(2R,3S,4R,5R,6S)-3,4,5-trihydroxy-6-(hydroxymethyl)tetrahydro-2H-pyran-2-yl]oxy}-3,4dihydro-2H-pyran-5-carboxylic acid] | 23.2 μg extract/mL |  |  |  |  |  |
| C/C=C1/[C@H](O[C@@H]2O[C@H](CO)[C@@H](O)[C@H](O)[C@H]2O)OC=C(C(=O)OC)[C@H]1CC(=O)OCCc1ccc(O)c(O)c1 [GS1, oleuropein] | 40.5 μg extract/mL |  |  |  |  |  |
| C/C=C(/C=O)[C@@H](CC=O)CC(=O)OCCc1ccc(O)cc1 [GS19, (3S,4E)-4-formyl-3-(2-oxoethyl)-4-hexenoic acid 2-(4-hydroxyphenyl)ethyl ester, reference compound] |  | 44.4% | did not show any significant effect | 21.6% |  |  |
| C/C=C(/C=O)[C@@H](CC=O)CC(=O)OCCOc1ccccc1 [GS24, (3S,4E)-4-formyl-3-(2-oxoethyl)-4-hexenoic acid 2-phenoxyethyl ester] |  | 35.4% |  |  |  |  |
| C/C=C(/C=O)[C@@H](CC=O)CC(=O)OCCCCCCCCCCCCCCCC [GS26, (3S,4E)-4-formyl-3-(2-oxoethyl)-4-hexenoic acid hexadecyl ester] |  |  |  | 36.3% | suppressive activity |  |
| C/C=C(/C=O)[C@@H](CC=O)CC(=O)SCCc1ccccc1 [GS27, S-phenethyl (3S,4E)-4-formyl-3-(2-oxoethyl)hex-4-enethioate] |  |  | > 60% | 56.5% | suppressive activity |  |
| C/C=C(/C=O)[C@@H](CC=O)CC(=O)OCCCSC [GS28, (3S,4E)-4-formyl-3-(2-oxoethyl)-4-hexenoic acid 3-(methylthio)propyl ester] |  | 95% |  | 34.4% | suppressive activity | highly effective |
